Laboratory results published in PMC5641952 (ACS Medicinal Chemistry Letters, 2017).

Biological target: MDM2 (Homo sapiens, UniProt Q00987)
Assay: Fluorescence polarization
Details: FP assay

Compound	activity toward MDM2 (in words)
CCOC(=O)c1[nH]c2cc(Cl)ccc2c1C1C(=O)NCCCCCCCCCCCCCCCCCCCC(=O)N1Cc1ccc(OCc2ccc(Cl)c(Cl)c2)cc1 (stereo not drawn) [2k]	orders of magnitude less reactive or inactive
O=C(O)c1[nH]c2cc(Cl)ccc2c1C1C(=O)NCCCCCCCCCCCCCC(=O)N1Cc1ccc(F)cc1 (stereo not drawn) [1d]	only slightly or not active at all
O=C(O)c1[nH]c2cc(Cl)ccc2c1C1C(=O)NCCCCCCCCCCCCCC(=O)N1Cc1ccc(Cl)cc1 (stereo not drawn) [1f]	only slightly or not active at all
